Data published in patent US6020328A, “20-keto-11β-arylsteroids and their derivatives having agonist or antagonist hormonal properties” (Research Triangle Institute, priority 1998, dated 2000).
Where “and” joins values, the source holds several entries; their conditions need not be identical. Equal entries are not always repeated.

Tests used:
[1] = system: rabbits; experiment: McGinty test (agonist, test compound alone); type: in vivo, rabbit
Procedure: (§2) Progestational activity and antiprogestational activity were determined in rabbits by means of the McGinty test (test compound alone, procedure of McGinty et al., Endocrinology, 24:829-832 (1939)) or anti-McGinty test (test compound plus progesterone, procedure of Tamara et al., Jpn. J. Fertil. Steril. 24:48-81 (1979)). Results were scored according to McPhail (McPhail, J. Physiol., 83:146 (1934)).

[2] = system: Human T-47D breast cells; experiment: T-47D cell proliferation, antagonist format (inhibition of 0.15 nM R5020-mediated proliferation); type: cell-based; details: T47D; for EC50: inhibition of 0.15 nM R5020-mediated proliferation, N.D. not detected; for Emax: maximum % inhibition, 0.15 nM R5020, read-out: Cell Proliferation Antagonist maximum % Inhib.
Procedure: (§1) Human T-47D breast cells grown in nutrient media were incubated with the standard progestin R5020 alone or with R5020 plus test compound and then assessed by standard procedures for proliferation using incorporation of [^3 H]-thymidine as the measurement. […] The maximum % inhibition (a measure of the efficacy of the compounds) is also given. In the agonist format of this assay the compounds were tested at concentrations ranging from 0.01 to 10 nM and the maximum % stimulation at any dose is listed in Table 2. […] However, the presence of a very polar hydroxyl group in the 17α-position greatly diminishes antiprogestational activity and this holds even when the OH is separated from the 17-carbon atom by a methylene group.

[3] = biological target: progestin receptor (hPR); experiment: progestin receptor binding; details: cytosol from human T-47D breast cells; [3H]-R5020; read-out: Receptor Binding Affinity hPR IC50
Description: However, the receptors were of human origin and a different radioligand was used. Thus, for progestin receptor binding the receptor was obtained in cytosol from human T-47D breast cells and [^3 H]-R5020 was used as the radioligand. Data are expressed as IC50 values, i.e., the concentration of compound that inhibits the radioligand binding by 50%.

[4] = system: Human T-47D breast cells; experiment: T-47D cell proliferation, agonist format; type: cell-based; details: T47D, 0.01 to 10 nM, maximum at any dose, read-out: Cell Proliferation Agonist maximum % Stim.
Procedure: as §1

[5] = system: rabbits; experiment: anti-McGinty test (antagonist, test compound plus progesterone); type: in vivo, rabbit
Procedure: as §2

Structure (SMILES)	McPhail Index, McGinty Assay (Agonist) ([1]; dose 0.3 micrograms)	McPhail Index, McGinty Assay (Agonist) ([1]; dose 3 micrograms)	McPhail Index, McGinty Assay (Agonist) ([1]; dose 30 micrograms)	EC50 [2] [nM]	Emax [2] [%]	IC50 [3] [nM]	Emax [4] [%]	progestational activity, McGinty test ([1]; in words)	antiprogestational activity, anti-McGinty test ([5]; in words)	McPhail Index, McGinty Assay (Antagonist) ([5]; rabbit, in vivo)	McPhail Index, McGinty Assay (Agonist), progesterone ([1]; progesterone control, printed under first dose column, own dose not stated)	McPhail Index, McGinty Assay (Antagonist), progesterone (Standard) ([5]; progesterone standard, printed under first dose column, own dose not stated)
CCC(=O)O[C@]1(C(C)=O)CC[C@H]2[C@@H]3CCC4=CC(=O)CCC4=C3[C@@H](c3ccc4c(ccn4C)c3)C[C@@]21C [11β-(1-Methylindol-5-yl)-17α-propionyloxy-19-norpregna-4,9-diene-3,20-dione]	0 +/- 0	0 +/- 0	0 +/- 0	2.4	107	2.3	7					
CCC(=O)O[C@]1(C(C)=O)CC[C@H]2[C@@H]3CCC4=CC(=O)CCC4=C3[C@@H](c3ccc(N4CCCCC4)cc3)C[C@@]21C [11β-(4-(N-piperidino)phenyl)-17α-propionyloxy-19-norpregna-4,9-diene-3,20-dione]	0 +/- 0	0 +/- 0	0 +/- 0	1	111	2	-16					
CC(=O)O[C@]1(C(C)=O)CC[C@H]2[C@@H]3CCC4=CC(=O)CCC4=C3[C@@H](c3ccc4c(c3)CCN4C)C[C@@]21C [17α-Acetoxy-11β-(1-methyl-2,3-dihydroindol-5-yl)-19-norpregna-4,9-diene-3,20-dione]	0.6 +/- 0.1	0.2 +/- 0.1	0.2 +/- 0.1	1.5	103	2	6					
CC(=O)O[C@]1(C(C)=O)CC[C@H]2[C@@H]3CCC4=CC(=O)CCC4=C3[C@@H](c3ccc(N(C)C)nc3)C[C@@]21C [17α-Acetoxy-11β-[2-(N,N-dimethylamino)pyrid-5-yl]-19-norpregna-4,9-diene-3,20-dione]	0 +/- 0	0 +/- 0	0 +/- 0	2.9	92	11	5					
CCC(=O)O[C@]1(C(C)=O)CC[C@H]2[C@@H]3CCC4=CC(=O)CCC4=C3[C@@H](c3ccc(N4CCCC4)cc3)C[C@@]21C [17α-Propionyloxy-11β-[4-(N-pyrrolidino)phenyl-19-norpregna-4,9-diene-3-20-dione]	0 +/- 0	0 +/- 0	0.1 +/- 0.1	0.9	107	4.8	-1					
COc1ccc([C@H]2C[C@@]3(C)[C@@H](CC[C@]3(OC(C)=O)C(C)=O)[C@@H]3CCC4=CC(=O)CCC4=C32)cc1 [I 4-CH3 O H O H --O--CO--CH3 H, 17α-Acetoxy-11β-(4-methoxyphenyl)-19-norpregna-4,9-diene-3,20-dione]	1.5 +/- 0.2	1.5 +/- 0.6	1.5 +/- 0.7	0.3	119	0.8	2	both agonist and antagonist properties	both agonist and antagonist properties			
CC(=O)O[C@]1(C(C)=O)CC[C@H]2[C@@H]3CCC4=CC(=O)CCC4=C3[C@@H](c3ccc(N(C)C)c(F)c3)C[C@@]21C [I 4-Me2 N 3-F O H --O--CO--CH3 H, 17α-Acetoxy-11β-(4-N,N-Dimethylamino-3-fluorophenyl)-19-norpregna4,9-diene-3,20-dione]	2.5 +/- 0.2	3.0 +/- 0.3	3.6 +/- 0.1	0.7	101	2.2	30			3.6 +/- 0.1 and 3.3 +/- 0.3 and 2.8 +/- 0.3		
C#C[C@]1(C(C)=O)CC[C@H]2[C@@H]3CCC4=CC(=O)CCC4=C3[C@@H](c3ccc(N(C)C)cc3)C[C@@]21C [I 4-Me2 N H O H --CCH H, 11β-(4-(N,N-Dimethylamino)phenyl)-17α-ethynyl-19-norpregna-4,9-diene-3,20-dione]	0.1 +/- 0.1	0.2 +/- 0.2	0.2 +/- 0.2	0.4	101	2.5	12					
CCC(=O)O[C@]1(C(C)=O)CC[C@H]2[C@@H]3CCC4=CC(=O)CCC4=C3[C@@H](c3ccc(N(C)C)cc3)C[C@@]21C [I 4-Me2 N H O H --O--CO--C2 H5 H, 11β-[4-(N,N-dimethylamino)phenyl]-17α-propionyloxy-19-norpregna-4,9-diene-3,10-dione]	0 +/- 0	0 +/- 0	0 +/- 0	0.4	110	1.3	4					
CC(=O)[C@@]1(OC(=O)c2ccccc2)CC[C@H]2[C@@H]3CCC4=CC(=O)CCC4=C3[C@@H](c3ccc(N(C)C)cc3)C[C@@]21C [I 4-Me2 N H O H --O--CO--C6 H5 H, 11β-[4-(N,N-Dimethylamino)phenyl]-17α-benzoyloxy-19-norpregna-4,9-diene-3,20-dione]	0 +/- 0	0 +/- 0	0 +/- 0	6.4	69	24	18					
CC[C@]1(C(C)=O)CC[C@H]2[C@@H]3CCC4=CC(=O)CCC4=C3[C@@H](c3ccc(N(C)C)cc3)C[C@@]21C [I 4-Me2 N H O H C2 H5 H, 11β-[4-(N,N-dimethylamino)phenyl]-17α-ethyl-19-norpregna-4,9-diene-3,20-dione]	0.2 +/- 0.1	0.3 +/- 0.2	0.3 +/- 0.26	0.3	110	0.6	8					
COC(=O)[C@]1(C(C)=O)CC[C@H]2[C@@H]3CCC4=CC(=O)CCC4=C3[C@@H](c3ccc(N(C)C)cc3)C[C@@]21C [I 4-Me2 N H O H COOCH3 H, 17α-carbomethoxy-11β-(4-(N,N-dimethylamino)phenyl)-19-norpregna-4,9-diene-3,20-dione]	0 +/- 0	0 +/- 0	0.07 +/- 0.07	0.4	92	0.7	24					
CC(=O)[C@@]1(OC(=O)Cc2ccccc2)CC[C@H]2[C@@H]3CCC4=CC(=O)CCC4=C3[C@@H](c3ccc(N(C)C)cc3)C[C@@]21C [I 4-Me2 N H O H O--CO--CH2 C6 H5 H, 11β-[4-(N,N-Dimethylamino)phenyl]-17α-phenylacetoxy-19-norpregna-4,9-diene-3,20-dione]				1.9	99	7.9	16					
CC(=O)[C@H]1CC[C@H]2[C@@H]3CCC4=CC(=O)CC[C@]4(C)[C@H]3CC[C@]12C [Progesterone, reference compound]						3.3					2.45 +/- 0.14	2.45 +/- 0.14
